Source: patent US20180030500A1, “ENRICHMENT AND SELECTIVE CULTURE OF MYCOBACTERIA” (priority 2015, published 2018)

How the values were obtained:
Experiment in all cases: Sensitivity to C-390 in medium W
Type in all cases: cell-based
Design in all cases: key: NG: no growth; Tr: traces
[1] = system: Burkholderia cepacia (LMG 18821)
Description: (§1) An evaluation of the sensitivity to C-390 of various microorganisms capable of infecting the airways was carried out. This evaluation was carried out using medium W of example 4, containing a variable concentration of C-390. Table 10 below collates the observations collected with regard to the intensity of growth of the strains tested as a function of the C-390 concentration of the medium. The abbreviations NG (“no growth”) and Tr (“traces”) signify that no growth was observed or only a few not very significant traces.

[2] = system: Burkholderia pyrrocinia (LMG 21824)
Description: as §1

[3] = system: Burkholderia cenocepacia (LMG 18832)
Description: as §1

[4] = system: Geosmithia argillacea (Anon)
Description: as §1

[5] = system: Burkholderia stabilis (LMG18870)
Description: as §1

[6] = system: Burkholderia multivorans (672832Y)
Description: as §1

[7] = system: Burkholderia dolosa (LMG21820)
Description: as §1

[8] = system: Burkholderia cenocepacia (LMG 18830); settings: C-390 32 mg/l in medium W
Description: as §1

[9] = system: Burkholderia anthina (20983)
Description: as §1

[10] = system: Burkholderia multivorans (LMG 18824)
Description: as §1

[11] = system: Burkholderia stabilis (716237)
Description: as §1

[12] = system: Burkholderia contaminans (40007X)
Description: as §1

**Q.** Which intensity of growth ([1]; C-390 16 mg/l in medium W) does the source give for `CCN(CC)c1ccc(C2(Cl)c3ccccc3N(c3ccccc3)c3ccccc32)cc1` [Medium C-390, 9-chloro-9-(4′-diethylamino)phenyl-9,10-dihydro-10-phenylacridine] here?
**A.** NG

**Q.** And the intensity of growth ([1]; C-390 32 mg/l in medium W)?
**A.** NG

**Q.** And the intensity of growth ([2]; C-390 4 mg/l in medium W)?
**A.** NG

**Q.** What about the intensity of growth ([2]; C-390 8 mg/l in medium W) of the same compound?
**A.** NG

**Q.** What about the intensity of growth ([2]; C-390 16 mg/l in medium W) of the same compound?
**A.** NG

**Q.** What about the intensity of growth ([2]; C-390 32 mg/l in medium W) of the same compound?
**A.** NG

**Q.** And the intensity of growth ([3]; C-390 8 mg/l in medium W)?
**A.** NG

**Q.** And the intensity of growth ([3]; C-390 16 mg/l in medium W)?
**A.** NG

**Q.** And the intensity of growth ([3]; C-390 32 mg/l in medium W)?
**A.** NG

**Q.** What about the intensity of growth ([4]; C-390 0.5 mg/l in medium W) of the same compound?
**A.** NG

**Q.** And the intensity of growth ([4]; C-390 1 mg/l in medium W)?
**A.** NG

**Q.** What about the intensity of growth ([4]; C-390 2 mg/l in medium W) of the same compound?
**A.** NG

**Q.** And the intensity of growth ([4]; C-390 4 mg/l in medium W)?
**A.** NG

**Q.** What about the intensity of growth ([4]; C-390 8 mg/l in medium W) of the same compound?
**A.** NG

**Q.** What about the intensity of growth ([4]; C-390 16 mg/l in medium W) of the same compound?
**A.** NG

**Q.** And the intensity of growth ([4]; C-390 32 mg/l in medium W)?
**A.** NG

**Q.** And the intensity of growth ([5]; C-390 2 mg/l in medium W)?
**A.** NG

**Q.** And the intensity of growth ([5]; C-390 4 mg/l in medium W)?
**A.** NG

**Q.** What about the intensity of growth ([5]; C-390 8 mg/l in medium W) of the same compound?
**A.** NG

**Q.** And the intensity of growth ([5]; C-390 16 mg/l in medium W)?
**A.** NG

**Q.** And the intensity of growth ([5]; C-390 32 mg/l in medium W)?
**A.** NG

**Q.** What about the intensity of growth ([6]; C-390 4 mg/l in medium W) of the same compound?
**A.** Tr

**Q.** And the intensity of growth ([6]; C-390 8 mg/l in medium W)?
**A.** NG

**Q.** And the intensity of growth ([6]; C-390 16 mg/l in medium W)?
**A.** NG

**Q.** What about the intensity of growth ([6]; C-390 32 mg/l in medium W) of the same compound?
**A.** NG

**Q.** And the intensity of growth ([7]; C-390 1 mg/l in medium W)?
**A.** Tr

**Q.** What about the intensity of growth ([7]; C-390 2 mg/l in medium W) of the same compound?
**A.** NG

**Q.** And the intensity of growth ([7]; C-390 4 mg/l in medium W)?
**A.** NG

**Q.** What about the intensity of growth ([7]; C-390 8 mg/l in medium W) of the same compound?
**A.** NG

**Q.** What about the intensity of growth ([7]; C-390 16 mg/l in medium W) of the same compound?
**A.** NG

**Q.** What about the intensity of growth ([7]; C-390 32 mg/l in medium W) of the same compound?
**A.** NG

**Q.** What about the intensity of growth [8] of the same compound?
**A.** NG

**Q.** What about the intensity of growth ([9]; C-390 1 mg/l in medium W) of the same compound?
**A.** Tr

**Q.** And the intensity of growth ([9]; C-390 2 mg/l in medium W)?
**A.** NG

**Q.** What about the intensity of growth ([9]; C-390 4 mg/l in medium W) of the same compound?
**A.** NG

**Q.** What about the intensity of growth ([9]; C-390 8 mg/l in medium W) of the same compound?
**A.** NG

**Q.** What about the intensity of growth ([9]; C-390 16 mg/l in medium W) of the same compound?
**A.** NG

**Q.** And the intensity of growth ([9]; C-390 32 mg/l in medium W)?
**A.** NG

**Q.** And the intensity of growth ([10]; C-390 4 mg/l in medium W)?
**A.** NG

**Q.** What about the intensity of growth ([10]; C-390 8 mg/l in medium W) of the same compound?
**A.** NG

**Q.** And the intensity of growth ([10]; C-390 16 mg/l in medium W)?
**A.** NG

**Q.** And the intensity of growth ([10]; C-390 32 mg/l in medium W)?
**A.** NG

**Q.** And the intensity of growth ([11]; C-390 4 mg/l in medium W)?
**A.** Tr

**Q.** What about the intensity of growth ([11]; C-390 8 mg/l in medium W) of the same compound?
**A.** Tr

**Q.** What about the intensity of growth ([11]; C-390 16 mg/l in medium W) of the same compound?
**A.** NG

**Q.** What about the intensity of growth ([11]; C-390 32 mg/l in medium W) of the same compound?
**A.** NG

**Q.** What about the intensity of growth ([12]; C-390 2 mg/l in medium W) of the same compound?
**A.** Tr

**Q.** What about the intensity of growth ([12]; C-390 4 mg/l in medium W) of the same compound?
**A.** NG

**Q.** And the intensity of growth ([12]; C-390 8 mg/l in medium W)?
**A.** NG

**Q.** And the intensity of growth ([12]; C-390 16 mg/l in medium W)?
**A.** NG

**Q.** And the intensity of growth ([12]; C-390 32 mg/l in medium W)?
**A.** NG
